From patent EP1072247A2, “Cosmetic and dermatological compositions based on o/w emulsions” (Beiersdorf Aktiengesellschaft, priority 1999, dated 2001)

Assay: Interfacial tension of lipids against water (measure of polarity)
Format: physicochemical
Conditions: lipids below 30 mN/m are regarded as polar
Excerpt: Öle und Fette unterscheiden sich unter anderem in ihrer Polarität, welche schwierig zu definieren ist. Es wurde bereits vorgeschlagen, die Grenzflächenspannung gegenüber Wasser als Maß für den Polaritätsindex eines Öls bzw. einer Ölphase anzunehmen. Dabei gilt, daß die Polarität der betreffenden Ölphase um so größer ist, je niedriger die Grenzflächenspannung zwischen dieser Ölphase und Wasser ist. Erfindungsgemäß wird die Grenzflächenspannung als ein mögliches Maß für die Polarität einer gegebenen Ölkomponente angesehen.
Die Grenzflächenspannung ist diejenige Kraft, die an einer gedachten, in der Grenzfläche zwischen zwei Phasen befindlichen Linie der Länge von einem Meter wirkt. Die physikalische Einheit für diese Grenzflächenspannung errechnet sich klassisch nach der Beziehung Kraft/Länge und wird gewöhnlich in mN/m (Millinewton geteilt durch Meter) wiedergegeben. Sie hat positives Vorzeichen, wenn sie das Bestreben hat, die Grenzfläche zu verkleinern. Im umgekehrten Falle hat sie negatives Vorzeichen. Als polar im Sinne der vorliegenden Erfindung werden Lipide angesehen, deren Grenzflächenspannung gegen Wasser weniger als 30 mN/m beträgt.
Unpolare Öle sind beispielsweise solche, welche gewählt werden aus der Gruppe der verzweigten und unverzweigten Kohlenwasserstoffe und -wachse, insbesondere Vaseline (Petrolatum), Paraffinöl, Squalan und Squalen, Polyolefine und hydrogenierte Polyisobutene. […] Tabelle 1

Compound | Grenzflächenspannungen gegen Wasser
CCCCCCCCCCCCCCCCCCOC(=O)CCCCCC [Tegosoft® SH, Stearyl Heptanoate] | 28,7 mN/m
CCCCCCCCCCCCCCCCCC(=O)OC(C)C [Isopropylstearat, Isopropyl Stearate] | 21,9 mN/m
Octyl Palmitate [Cegesoft® C24] | 23,1 mN/m
Octyl Stearate [Cetiol® 868] | 28,4 mN/m
CCCCCCCC(=O)OCC(COC(=O)CCCCCCC)OC(=O)CCCCCCC [Trivent® OCG, Tricaprylin] | 20,2 mN/m
CCCCCCCCOC(=O)CCCCCCCCCCCCCCC(C)C [Prisorine® 2036, Octyl Isostearate] | 29,7 mN/m
CCCCCCCCOCCCCCCCC [Cetiol® OE, Dicaprylyl Ether] | 22,1 mN/m
